Data published in patent US20060083830A1, “Polylysine-containing food additive and acidic adjuvant” (priority 2004, published 2006).
Values joined by “and” are separate entries in the source; they are usually repeats but may differ in a detail not shown here. Identical values can stand only once.

Test system: Listeria monocytogenes
Test: L. monocytogenes on cooked ground turkey balls blended with ε-polylysine, vacuum packaged, stored at 10° C., CFU determination
Assay type: cell-based
Details: for Log Reduction: vs control Group A
Method: Six groups of 20 g ground uncooked turkey balls were prepared, with 27 balls prepared per group. […] Groups B-F were blended with varying amounts of ε-polylysine (“ε-PL”). Final concentrations of ε-polylysine within the turkey balls were:
After preparation, all meatballs were placed on baking sheets and baked in a conventional oven at 350° F. for 20 minutes. After baking, the meatballs were packaged separately and stored at 4° C.
The mixture was further diluted 1:10,000 times with sterile saline to produce a suspension for use.
20 microliters of the Listeria monocytogenes suspension was inoculated onto the exterior of each turkey ball. Turkey balls were incubated at room temperature for 30 min post-inoculation to allow bacteria to attach. Turkey balls were individually vacuum packaged and stored at 10° C.
The microbiological assay was performed after 3 hours, 24 hours, 1 week, 2 weeks, 3 weeks, 4 weeks, 5 weeks, 7 weeks, and 8 weeks. After each designated time period had passed, three bags from each group of meat balls were unpacked, transferred to a stomacher bag along with 20 ml of sterile 0.1% peptone water. Each meatball was hand crushed and stomached at high speed for 2 minutes. […] The letter “{overscore (A)}” denotes average.

poly(imino(2-amino-1-oxo-1,6-hexanediyl)) [ε-PL]
average of CFU/g (3000 ppm ε-PL, after 7 weeks): <1.20E+01 CFU/g | Log Reduction (3000 ppm ε-PL, after 7 weeks): >7.34 | CFU/g (3000 ppm ε-PL, after 8 weeks): <2.00E+00 CFU/g | average Log Value (3000 ppm ε-PL, after 8 weeks): <0.30 | average of CFU/g (3000 ppm ε-PL, after 8 weeks): <2.00E+00 CFU/g | Log Reduction (3000 ppm ε-PL, after 8 weeks): >8.03 | average Log Value (3000 ppm ε-PL, after 3 hours): 1.51 | average of CFU/g (3000 ppm ε-PL, after 3 hours): 3.20E+01 CFU/g | Log Reduction (3000 ppm ε-PL, after 3 hours): 1.28 | CFU/g (3000 ppm ε-PL, after 24 hours): 5.00E+01 CFU/g and 6.40E+01 CFU/g and 7.20E+01 CFU/g | average Log Value (3000 ppm ε-PL, after 24 hours): 1.79 | average of CFU/g (3000 ppm ε-PL, after 24 hours): 6.20E+01 CFU/g | Log Reduction (3000 ppm ε-PL, after 24 hours): >1.93 | average Log Value (4000 ppm ε-PL, after 1 week): <0.52 | average of CFU/g (4000 ppm ε-PL, after 1 week): <3.35E+00 CFU/g | Log Reduction (4000 ppm ε-PL, after 1 week): >7.76 | CFU/g (4000 ppm ε-PL, after 2 weeks): <2.00E+00 CFU/g | average Log Value (4000 ppm ε-PL, after 2 weeks): <0.30 | average of CFU/g (4000 ppm ε-PL, after 2 weeks): <2.00E+00 CFU/g | Log Reduction (4000 ppm ε-PL, after 2 weeks): >7.29 | CFU/g (4000 ppm ε-PL, after 3 weeks): <2.00E+00 CFU/g | average Log Value (4000 ppm ε-PL, after 3 weeks): <0.3 | average of CFU/g (4000 ppm ε-PL, after 3 weeks): <2.00E+00 CFU/g | Log Reduction (4000 ppm ε-PL, after 3 weeks): >8.09 | CFU/g (4000 ppm ε-PL, after 4 weeks): 2.00E+00 CFU/g and <2.00E+00 CFU/g | average Log Value (4000 ppm ε-PL, after 4 weeks): <0.30 | average of CFU/g (4000 ppm ε-PL, after 4 weeks): <2.00E+00 CFU/g | Log Reduction (4000 ppm ε-PL, after 4 weeks): >8.17 | CFU/g (4000 ppm ε-PL, after 5 weeks): <2.00E+00 CFU/g | average Log Value (4000 ppm ε-PL, after 5 weeks): <0.30 | average of CFU/g (4000 ppm ε-PL, after 5 weeks): <2.00E+00 CFU/g | Log Reduction (4000 ppm ε-PL, after 5 weeks): >8.12 | CFU/g (4000 ppm ε-PL, after 7 weeks): <2.00E+00 CFU/g | average Log Value (4000 ppm ε-PL, after 7 weeks): <0.30 | average of CFU/g (4000 ppm ε-PL, after 7 weeks): <2.00E+00 CFU/g | Log Reduction (4000 ppm ε-PL, after 7 weeks): >8.12 | CFU/g (4000 ppm ε-PL, after 8 weeks): <2.00E+00 CFU/g | average Log Value (4000 ppm ε-PL, after 8 weeks): <0.30 | average of CFU/g (4000 ppm ε-PL, after 8 weeks): <2.00E+00 CFU/g | Log Reduction (4000 ppm ε-PL, after 8 weeks): >8.03 | average Log Value (4000 ppm ε-PL, after 3 hours): <1.17 | average of CFU/g (4000 ppm ε-PL, after 3 hours): <1.47E+01 CFU/g | Log Reduction (4000 ppm ε-PL, after 3 hours): >1.62 | average Log Value (4000 ppm ε-PL, after 24 hours): 1.29 | average of CFU/g (4000 ppm ε-PL, after 24 hours): 1.93E+01 CFU/g | Log Reduction (4000 ppm ε-PL, after 24 hours): >2.44 | average Log Value (5000 ppm ε-PL, after 1 week): 1.95 | average of CFU/g (5000 ppm ε-PL, after 1 week): 8.87E+01 CFU/g | Log Reduction (5000 ppm ε-PL, after 1 week): 6.33 | average Log Value (5000 ppm ε-PL, after 2 weeks): <0.30 | average of CFU/g (5000 ppm ε-PL, after 2 weeks): <2.00E+00 CFU/g | Log Reduction (5000 ppm ε-PL, after 2 weeks): >7.99 | CFU/g (5000 ppm ε-PL, after 3 weeks): <2.00E+00 CFU/g | average Log Value (5000 ppm ε-PL, after 3 weeks): <0.30 | average of CFU/g (5000 ppm ε-PL, after 3 weeks): <2.00E+00 CFU/g | Log Reduction (5000 ppm ε-PL, after 3 weeks): >8.09 | average Log Value (5000 ppm ε-PL, after 4 weeks): <0.30 | average of CFU/g (5000 ppm ε-PL, after 4 weeks): <2.00E+00 CFU/g | Log Reduction (5000 ppm ε-PL, after 4 weeks): <8.17 | CFU/g (5000 ppm ε-PL, after 5 weeks): <2.00E+00 CFU/g | average Log Value (5000 ppm ε-PL, after 5 weeks): <0.30 | average of CFU/g (5000 ppm ε-PL, after 5 weeks): <2.00E+00 CFU/g | Log Reduction (5000 ppm ε-PL, after 5 weeks): >8.12 | CFU/g (5000 ppm ε-PL, after 7 weeks): <2.00E+00 CFU/g | average Log Value (5000 ppm ε-PL, after 7 weeks): <0.30 | average of CFU/g (5000 ppm ε-PL, after 7 weeks): <2.00E+00 CFU/g | Log Reduction (5000 ppm ε-PL, after 7 weeks): >8.12 | CFU/g (5000 ppm ε-PL, after 8 weeks): <2.00E+00 CFU/g | average Log Value (5000 ppm ε-PL, after 8 weeks): <0.30 | average of CFU/g (5000 ppm ε-PL, after 8 weeks): <2.00E+00 CFU/g | Log Reduction (5000 ppm ε-PL, after 8 weeks): >8.03 | average Log Value (5000 ppm ε-PL, after 3 hours): 0.60 | average of CFU/g (5000 ppm ε-PL, after 3 hours): 4.00E+00 CFU/g | Log Reduction (5000 ppm ε-PL, after 3 hours): 2.18 | average Log Value (5000 ppm ε-PL, after 24 hours): 0.73 | average of CFU/g (5000 ppm ε-PL, after 24 hours): 5.33E+00 CFU/g | Log Reduction (5000 ppm ε-PL, after 24 hours): >3.00 | outgrowth of Listeria (final concentration of 3000 ppm in ground turkey, eight week period, 10° C.): completely inhibited the outgrowth of Listeria
